Active and inactive are the calls of the source. No rule for the calls is given here.

As a reminder, the TD50 is the dose at which the toxic effect under study appears in half of the subjects.

In the data set the test system is rodent lifetime carcinogenesis bioassay, tumor incidence TD50. In words: chronic cancer bioassays in animals – CPDB, compiled studies (AID 1745844).

Regarding `O=NN1CCCN(N=O)CC1`, the TD50 is, setting by setting: (rat, strain Fischer 344, females, in drinking water, site: esophagus, lesion: several types, types named in the paper, dosed 30 weeks, study length 133 weeks) 0.253 mg/kg/day; (rat, strain Fischer 344, females, in drinking water, site: esophagus, lesion: several types, types named in the paper, dosed 60 weeks, study length 82 weeks) 0.0553 mg/kg/day; (rat, strain Fischer 344, females, in drinking water, site: esophagus, lesion: several types, types named in the paper, dosed 120 weeks, study length 133 weeks) 0.105 mg/kg/day; (rat, strain Fischer 344, females, in drinking water, site: liver, lesion: several types, types named in the paper, dosed 120 weeks, study length 133 weeks) 0.0973 mg/kg/day; (rat, strain Fischer 344, females, in drinking water, site: nasal cavity, lesion: olfactory carcinoma, dosed 60 weeks, study length 82 weeks) 0.207 mg/kg/day; (rat, strain Fischer 344, females, in drinking water, site: tongue, lesion: basal-cell papilloma, dosed 120 weeks, study length 133 weeks) 0.63 mg/kg/day. In addition, the TD50 (rat, strain Fischer 344, females, in drinking water, site: upper gastrointestinal tract, lesion: carcinoma, dosed 30 weeks, study length 133 weeks) was 0.24 mg/kg/day; the TD50 (rat, strain Fischer 344, females, in drinking water, site: upper gastrointestinal tract, lesion: carcinoma, dosed 60 weeks, study length 82 weeks) was 0.0469 mg/kg/day; the TD50 (rat, strain Fischer 344, females, in drinking water, site: upper gastrointestinal tract, lesion: several types, types named in the paper, dosed 30 weeks, study length 133 weeks) is 0.708 mg/kg/day; the TD50 (rat, strain Fischer 344, females, in drinking water, site: upper gastrointestinal tract, lesion: several types, types named in the paper, dosed 60 weeks, study length 82 weeks) was 0.0297 mg/kg/day; the TD50 (rat, strain Fischer 344, females, in drinking water, site: upper gastrointestinal tract, lesion: several types, types named in the paper, dosed 120 weeks, study length 133 weeks) was 0.0914 mg/kg/day. The carcinogen call is “positive” (rat, strain Fischer 344, females, in drinking water, site: liver, lesion: several types, types named in the paper, dosed 30 weeks, study length 133 weeks) and “positive” (rat, strain Fischer 344, females, in drinking water, site: nasal cavity, lesion: olfactory carcinoma, dosed 30 weeks, study length 133 weeks).

As for `O=S(=O)(O)NC1CCCCC1`, the TD50 runs as follows: (monkey, strain Cynomolgus [Macaca fascicularis], both sexes, in feed, site: liver, lesion: hepatocellular carcinoma, dosed 1238 weeks, study length 1238 weeks) 1250 mg/kg/day; (monkey, strain Cynomolgus [Macaca fascicularis], both sexes, in feed, site: prostate, lesion: adenocarcinoma, dosed 1238 weeks, study length 1238 weeks) 35.6 mg/kg/day; (monkey, strain Rhesus [Macaca mulatta], both sexes, in feed, site: any site (literature study), lesion: malignant tumor, dosed 1251 weeks, study length 1251 weeks) 3160 mg/kg/day; (monkey, strain Rhesus [Macaca mulatta], both sexes, in feed, site: colon, lesion: adenocarcinoma, dosed 1251 weeks, study length 1251 weeks) 764 mg/kg/day; (monkey, strain Rhesus [Macaca mulatta], both sexes, in feed, site: thyroid gland, lesion: papillary adenoma, dosed 1251 weeks, study length 1251 weeks) 182 mg/kg/day; (mouse, strain (C3H x RIII)F1 (MTV+), males, in drinking water, site: any site (literature study), lesion: several types, types named in the paper, dosed 104 weeks, study length 104 weeks) 772 mg/kg/day. In addition, the TD50 runs as follows: (mouse, strain (C3H x RIII)F1 (MTV+), males, in drinking water, site: liver, lesion: several types, types named in the paper, dosed 104 weeks, study length 104 weeks) 1420 mg/kg/day; (mouse, strain (C3H x RIII)F1 (MTV+), males, in drinking water, site: lung, lesion: several types, types named in the paper, dosed 104 weeks, study length 104 weeks) 4380 mg/kg/day; (mouse, strain ASH-CS1, females, in feed, site: lung, lesion: adenoma, dosed 80 weeks, study length 82 weeks) 228000 mg/kg/day (inactive); (mouse, strain ASH-CS1, females, in feed, site: reticuloendothelium, lesion: lymphosarcoma, dosed 80 weeks, study length 82 weeks) 16700 mg/kg/day (inactive); (mouse, strain RIII (MTV+), males, in drinking water, site: any site (literature study), lesion: several types, types named in the paper, dosed 104 weeks, study length 104 weeks) 4670 mg/kg/day; (mouse, strain RIII (MTV+), males, in drinking water, site: lung, lesion: several types, types named in the paper, dosed 104 weeks, study length 104 weeks) 4670 mg/kg/day. For the same compound, the TD50 reads like this: (mouse, strain XVII/G, females, in drinking water, site: any site (literature study), lesion: several types, types named in the paper, dosed 104 weeks, study length 104 weeks) 587 mg/kg/day; (mouse, strain XVII/G, females, in drinking water, site: liver, lesion: several types, types named in the paper, dosed 104 weeks, study length 104 weeks) 16000 mg/kg/day; (mouse, strain XVII/G, females, in drinking water, site: lung, lesion: several types, types named in the paper, dosed 104 weeks, study length 104 weeks) 587 mg/kg/day; (rat, strain Sprague-Dawley, both sexes, in feed, site: any site (literature study), lesion: malignant tumor, dosed 130 weeks, study length 130 weeks) 30700 mg/kg/day (inactive); (rat, strain Wistar, both sexes, in feed, site: urinary bladder, lesion: one or several types, types not named, dosed 104 weeks, study length 104 weeks) 83900 mg/kg/day. Also, the carcinogen call is “negative (inactive)” (mouse, strain ASH-CS1, females, in feed, site: liver, lesion: one or several types, types not named, dosed 80 weeks, study length 82 weeks); “negative (inactive)” (mouse, strain ASH-CS1, males, in feed, site: liver, lesion: one or several types, types not named, dosed 80 weeks, study length 82 weeks); “negative (inactive)” (mouse, strain ASH-CS1, males, in feed, site: lung, lesion: adenoma, dosed 80 weeks, study length 82 weeks); “negative (inactive)” (mouse, strain Swiss albino, females, in feed, site: liver, lesion: hepatoma, dosed 76 weeks, study length 76 weeks); “negative (inactive)” (mouse, strain Swiss, females, in feed, site: urinary bladder, lesion: anaplastic carcinoma, dosed 91 weeks, study length 91 weeks); “negative (inactive)” (mouse, strain Swiss, males, in feed, site: urinary bladder, lesion: one or several types, types not named, dosed 91 weeks, study length 91 weeks). Besides, the carcinogen call runs as follows: (rat, strain Sprague-Dawley, both sexes, in feed, site: urinary bladder, lesion: papilloma, dosed 130 weeks, study length 130 weeks) “negative (inactive)”; (rat, strain Sprague-Dawley, both sexes, in feed, site: urinary bladder, lesion: transitional-cell carcinoma, dosed 130 weeks, study length 130 weeks) “negative (inactive)”.

Consider `Nc1ccc(-c2ccc(N)c(N)c2)cc1N`, for which the TD50 (mouse, strain CD-1 HaM/ICR, females, in feed, site: any site (literature study), lesion: several types, types named in the paper, dosed 77 weeks, study length 98 weeks) is 599 mg/kg/day (inactive); the TD50 (mouse, strain CD-1 HaM/ICR, females, in feed, site: liver, lesion: several types, types named in the paper, dosed 77 weeks, study length 98 weeks) is 1690 mg/kg/day (inactive); the TD50 (mouse, strain CD-1 HaM/ICR, females, in feed, site: lung, lesion: several types, types named in the paper, dosed 77 weeks, study length 98 weeks) was 1030 mg/kg/day (inactive); the TD50 (mouse, strain CD-1 HaM/ICR, males, in feed, site: any site (literature study), lesion: several types, types named in the paper, dosed 77 weeks, study length 94 weeks) was 224 mg/kg/day; the TD50 (mouse, strain CD-1 HaM/ICR, males, in feed, site: liver, lesion: several types, types named in the paper, dosed 77 weeks, study length 94 weeks) is 4170 mg/kg/day (inactive); the TD50 (mouse, strain CD-1 HaM/ICR, males, in feed, site: lung, lesion: several types, types named in the paper, dosed 77 weeks, study length 94 weeks) was 288 mg/kg/day. Further, the TD50 is, setting by setting: (rat, strain Charles River CD (Sprague-Dawley), males, in feed, site: any site (literature study), lesion: several types, types named in the paper, dosed 77 weeks, study length 107 weeks) 200 mg/kg/day; (rat, strain Charles River CD (Sprague-Dawley), males, in feed, site: liver, lesion: hepatoma, dosed 77 weeks, study length 107 weeks) 395 mg/kg/day; (rat, strain Charles River CD (Sprague-Dawley), males, in feed, site: liver, lesion: several types, types named in the paper, dosed 77 weeks, study length 107 weeks) 259 mg/kg/day.

On to `CC(C(O)c1ccccc1)N(C)N=O` (stereo not given), for which the TD50 (rat, strain Sprague-Dawley, males, by gavage, site: any site (literature study), lesion: several types, types named in the paper, dosed 104 weeks, study length 104 weeks) worked out at 40 mg/kg/day; the TD50 (rat, strain Sprague-Dawley, males, by gavage, site: forestomach, lesion: papilloma, dosed 104 weeks, study length 104 weeks) was 239 mg/kg/day; the TD50 (rat, strain Sprague-Dawley, males, by gavage, site: forestomach, lesion: squamous-cell carcinoma, dosed 104 weeks, study length 104 weeks) is 740 mg/kg/day; the TD50 (rat, strain Sprague-Dawley, males, by gavage, site: liver, lesion: hepatocellular carcinoma, dosed 104 weeks, study length 104 weeks) stood at 138 mg/kg/day; the TD50 (rat, strain Sprague-Dawley, males, by gavage, site: liver, lesion: several types, types named in the paper, dosed 104 weeks, study length 104 weeks) is 95.2 mg/kg/day; the TD50 (rat, strain Sprague-Dawley, males, by gavage, site: lung, lesion: several types, types named in the paper, dosed 104 weeks, study length 104 weeks) was 217 mg/kg/day.

Take `OCl`: the carcinogen call is, setting by setting: (mouse, strain B6C3F1, females, in drinking water, site: any site (literature study), lesion: several types, types named in the paper, dosed 103 weeks, study length 106 weeks) “negative (inactive)”; (mouse, strain B6C3F1, females, in drinking water, site: liver, lesion: hepatocellular carcinoma, dosed 103 weeks, study length 106 weeks) “negative (inactive)”; (mouse, strain B6C3F1, females, in drinking water, site: liver, lesion: several types, types named in the paper, dosed 103 weeks, study length 106 weeks) “negative (inactive)”; (mouse, strain B6C3F1, males, in drinking water, site: liver, lesion: hepatocellular carcinoma, dosed 103 weeks, study length 106 weeks) “negative (inactive)”; (rat, strain F344/DuCrj, males, in drinking water, site: liver, lesion: cholangioma, dosed 104 weeks, study length 112 weeks) “negative (inactive)”; (rat, strain F344/DuCrj, males, in drinking water, site: liver, lesion: fibrous histiocytoma, dosed 104 weeks, study length 112 weeks) “negative (inactive)”. In addition, the carcinogen call (rat, strain F344/DuCrj, males, in drinking water, site: liver, lesion: several types, types named in the paper, dosed 104 weeks, study length 112 weeks) was “negative (inactive)”. Moreover, the TD50 is 22900 mg/kg/day (inactive) (mouse, strain B6C3F1, females, in drinking water, site: lung, lesion: several types, types named in the paper, dosed 103 weeks, study length 106 weeks); 350 mg/kg/day (inactive) (mouse, strain B6C3F1, males, in drinking water, site: any site (literature study), lesion: several types, types named in the paper, dosed 103 weeks, study length 106 weeks); 876 mg/kg/day (inactive) (mouse, strain B6C3F1, males, in drinking water, site: liver, lesion: several types, types named in the paper, dosed 103 weeks, study length 106 weeks); 2040 mg/kg/day (inactive) (mouse, strain B6C3F1, males, in drinking water, site: lung, lesion: several types, types named in the paper, dosed 103 weeks, study length 106 weeks); 6300 mg/kg/day (inactive) (rat, strain F344/DuCrj, females, in drinking water, site: liver, lesion: several types, types named in the paper, dosed 104 weeks, study length 112 weeks).

For the origin of these results see PubChem BioAssay AID1745844 (Carcinogenic Potency Database (CPDB), 2022).
